Activity calls are given as the source filed them. No cut-off for these calls is given here.
What was measured:
Rhodococcus fascians [1] = assay: Antimicrobial activity against Corynebacterium fascians NCPPB 2551 at 0.0005 molarity/paper disk; type: functional, Rhodococcoides fascians
Rhodococcus fascians [2] = assay: Antimicrobial activity against Corynebacterium fascians NCPPB 2551 at 0.01 molarity/paper disk; type: functional, Rhodococcoides fascians
Rhodococcus fascians [3] = assay: Antimicrobial activity against Corynebacterium fascians NCPPB 2551 at 0.001 molarity/paper disk; type: functional, Rhodococcoides fascians
Rhodococcus fascians [4] = assay: Antimicrobial activity against Corynebacterium fascians NCPPB 2551 at 0.0001 molarity/paper disk; type: functional, Rhodococcoides fascians
Pseudomonas syringae [5] = assay: Antimicrobial activity against Pseudomonas syringae pv. tabaci NCPPB 2730 after 48 to 72 hrs by paper disk method; type: functional, organism-based; details: Pseudomonas amygdali pv. tabaci
Pseudomonas syringae [6] = assay: Antimicrobial activity against Pseudomonas syringae pv. syringae NCPPB ITM24 after 48 to 72 hrs by paper disk method; type: functional, organism-based
Pseudomonas syringae [7] = assay: Antimicrobial activity against Pseudomonas syringae pv. tomato NCPPB 2563 after 48 to 72 hrs by paper disk method; type: functional, organism-based
[8] = system: Agrobacterium tumefaciens; assay: Antimicrobial activity against Agrobacterium tumefaciens ITM 71 after 48 to 72 hrs by paper disk method; type: functional, organism-based
[9] = system: Pectobacterium carotovorum; assay: Antimicrobial activity against Erwinia carotovora subsp. carotovora NCPPB ITM 180 after 48 to 72 hrs by paper disk method; type: functional, organism-based
Pseudomonas = assay: Antimicrobial activity against Pseudomonas ITM 311 after 48 to 72 hrs by paper disk method; type: functional, organism-based
Pseudomonas syringae [10] = assay: Antimicrobial activity against Pseudomonas syringae pv. maculicola NCPPB 1777 after 48 to 72 hrs by paper disk method; type: functional, organism-based
[11] = system: Curtobacterium flaccumfaciens; assay: Antimicrobial activity against Corynebacterium flaccumfaciens NCPPB 559 after 48 to 72 hrs by paper disk method; type: functional, organism-based
Pseudomonas savastanoi = assay: Antimicrobial activity against Pseudomonas savastanoi ITM 519 after 48 to 72 hrs by paper disk method; type: functional, organism-based
[12] = system: Xanthomonas euvesicatoria; assay: Antimicrobial activity against Xanthomonas campestris pv. vesicatoria NCPPB 1616 after 48 to 72 hrs by paper disk method; type: functional, organism-based
[13] = system: Pseudomonas coronafaciens; assay: Antimicrobial activity against Pseudomonas coronafaciens NCPPB 2481 after 48 to 72 hrs by paper disk method; type: functional, organism-based
Pseudomonas cichorii = assay: Antimicrobial activity against Pseudomonas cichorii NCPPB 2379 after 48 to 72 hrs by paper disk method; type: functional, organism-based
Priestia megaterium = assay: Antimicrobial activity against Bacillus megaterium ITM 80 after 48 to 72 hrs by paper disk method; type: functional, organism-based

| Structure (SMILES) | inhibition zone (IZ) (Rhodococcus fascians [1]) [mm] | inhibition zone (IZ) (Rhodococcus fascians [2]) [mm] | inhibition zone (IZ) (Rhodococcus fascians [3]) [mm] | inhibition zone (IZ) (Rhodococcus fascians [4]) [mm] | Activity (Pseudomonas syringae [5]) | Activity (Pseudomonas syringae [6]) | Activity (Pseudomonas syringae [7]) | Activity [8] | Activity [9] | Activity (Pseudomonas) | Activity (Pseudomonas syringae [10]) | Activity [11] | Activity (Pseudomonas savastanoi) | Activity [12] | Activity [13] | Activity (Pseudomonas cichorii) | Activity (Priestia megaterium) |
| --- | --- | --- | --- | --- | --- | --- | --- | --- | --- | --- | --- | --- | --- | --- | --- | --- | --- |
| Oc1ccc2c3c1c1cc4c(cc1c[n+]3CC2)OCO4.[Cl-] | 0 | 10 | 7 | 0 | – | – | – | – | – | – | – | – | – | – | – | – | – |
| O=c1c2cc3c(cc2c2cccc4c2n1CC4)OCO3 | 9 | 25 | 12 | 0 | – | – | – | – | – | – | – | – | – | – | – | – | – |
| Oc1cc2c3c(c1)c1cc4c(cc1c[n+]3CC2)OCO4.[Cl-] | 0 | 0 | 0 | 0 | – | – | – | – | – | – | – | – | – | – | – | – | – |
| c1cc2c3c(c1)-c1cc4c(cc1CN3CC2)OCO4 [ANHYDROLYCORINE] | 15 | 25 | 25 | 0 | – | – | – | – | – | – | – | – | – | – | – | – | – |
| [Cl-].c1cc2c3c(c1)c1cc4c(cc1c[n+]3CC2)OCO4 [ANHYDROLYCORINIUM CHLORIDE] | 16 | 30 | 24 | 10 | Active | Active | Active | Active | Active | inactive | Active | Active | Active | Active | Active | Active | Active |
| O[C@H]1[C@H]2c3cc4c(cc3CN3CCC(=C[C@@H]1O)[C@H]23)OCO4 [LYCORINE] | 0 | 0 | 0 | 0 | – | – | – | – | – | – | – | – | – | – | – | – | – |
| O=C1N[C@@H]2C(=C[C@H](O)[C@@H](O)[C@H]2O)c2cc3c(c(O)c21)OCO3 [NARCICLASINE] | 0 | 0 | 0 | 0 | – | – | – | – | – | – | – | – | – | – | – | – | – |
| [O-]c1cc2c3c(c1)c1cc4c(cc1c[n+]3CC2)OCO4 [UNGEREMINE] | 0 | 15 | 14 | 0 | Active | Active | Active | Active | Active | inactive | Active | Active | Active | Active | Active | Active | Active |

From ChEMBL document CHEMBL1151658, “Degradation of Lycorine by Pseudomonas Species Strain ITM 311” (1985)
